Results from patent publication US20110092448A1, “Peptide Conjugate for Oral Delivery of Hydrophilic Peptide Analgesics” (METABOLIC PHARMACEUTICALS LIMITED, priority 2005, published 2011).
Where two headings read alike, the source gives them in different places.

Tests used:
[1] = tested on: neuronal nicotinic acetylcholine receptor; type: cell-based, bovine
[2] = tested on: chronic neuropathy (CCI) in Sprague-Dawley rats; conditions: rat, in vivo
[3] = tested on: STZ diabetic Sprague-Dawley rats with neuropathic pain; conditions: rat, in vivo
[4] = rat, in vivo

Compound	catecholamine release in response to nicotine [1]	analgesic effect vs vehicle group ([2]; 2 mg/kg)	withdrawal threshold after one hour ([2]; 2 mg/kg)	relative oral availability [3]	minimum dose for maximal activity ([3]; po)	oral absorption (time profile of effect) ([3]; po)	minimum dose for maximal activity ([3]; sc)	oral availability compared with subcutaneous (plasma concentrations) [4]	analgesic effect (relieving pain) [2]	analgesic effect (relieving pain) ([2]; po)	analgesic effect (relieving pain) ([2]; sc)
Ac-Tyr-Leu-Arg-Ile-Val-Gly-Cys-Cys-Ser-Asp-Pro-Arg-Cys-Asn-Tyr-Asp-His-Pro-Glu-Ile-Cys-NH2 (Ac-YLRIVGCCSDPRCNYDHPEIC-NH2; cysteine pairing not given here) [ACV3]	decreased catecholamine release	significant difference	increase in withdrawal threshold	30-70%	~0.3 mg/kg	rapid	~0.3 mg/kg				
CC[C@H](C)[C@@H]1NC(=O)[C@H](CCC(=O)O)NC(=O)[C@@H]2CCCN2C(=O)[C@H](Cc2cnc[nH]2)NC(=O)[C@H](CC(=O)O)NC(=O)[C@H](Cc2ccc(O)cc2)NC(=O)[C@H](CC(N)=O)NC(=O)[C@@H]2CSSC[C@H](NC(=O)CN)C(=O)N[C@@H](CSSC[C@@H](C(N)=O)NC1=O)C(=O)N[C@@H](CO)C(=O)N[C@@H](CC(=O)O)C(=O)N1CCC[C@H]1C(=O)N[C@@H](CCCNC(=N)N)C(=O)N2 [ACV1, Gly-Cys-Cys-Ser-Asp-Pro-Arg-Cys-Asn-Tyr-Asp-His-Pro-Glu-Ile-Cys-NH2]	decreased catecholamine release							1-2%	not effective	not effective	effective
